Biological target: SARS-CoV-2-RBD (insect-derived) (Severe acute respiratory syndrome coronavirus 2, UniProt P0DTC2, F486P)

TFLDKFNHEAED [SEQ ID NO: 15]
binding to SARS-CoV-2-RBD: did not bind

— patent US20230152316A1, “SARS-COV2 SPIKE PROTEIN BINDING PEPTIDES” (priority 2020, published 2023)
